In ChEMBL document CHEMBL1141727, “Isolation and cytotoxic evaluation of marine sponge-derived norterpene peroxides” (J Nat Prod, 1998):

Columns and labels:
MDA-MB-231 = experiment: Growth inhibition of human MDA-MB-231 cells; assay type: functional
Malme-3M = experiment: Growth inhibition of human MALME-3M cells; assay type: functional
DU-145 = experiment: Growth inhibition of human DU145 cells; assay type: functional
M14 = experiment: Growth inhibition of human M14 cells; assay type: functional
SW-620 = experiment: Growth inhibition of human SW620 cells; assay type: functional
NCI-H322M = experiment: Growth inhibition of human NCI-H322M cells; assay type: functional
U-251 = experiment: Growth inhibition of human U251 cells; assay type: functional
SNB-19 = experiment: Growth inhibition of human SNB19 cells; assay type: functional
HCT-116 = experiment: Growth inhibition of human HCT116 cells; assay type: functional
[1] = Growth inhibition of human Hs 578T cells; assay type: functional
SK-OV-3 = experiment: Growth inhibition of human SKOV3 cells; assay type: functional
SK-MEL-5 = experiment: Growth inhibition of human SK-MEL-5 cells; assay type: functional
MDA-MB-435 = experiment: Growth inhibition of human MDA-MB-435 cells; assay type: functional
HCT-15 = experiment: Growth inhibition of human HCT15 cells; assay type: functional
UO-31 = experiment: Growth inhibition of human UO31 cells; assay type: functional
NCI-H23 = experiment: Growth inhibition of human NCI-H23 cells; assay type: functional
TK-10 = experiment: Growth inhibition of human TK10 cells; assay type: functional
SK-MEL-28 = experiment: Growth inhibition of human SK-MEL-28 cells; assay type: functional
MDA-N = experiment: Growth inhibition of human MDA-N cells; assay type: functional
IGROV-1 = experiment: Growth inhibition of human IGROV1 cells; assay type: functional
[2] = Growth inhibition of mouse M17/ADR cells assessed as zone units at 50 ug/disk by disk diffusion agar colony formation assay; assay type: functional
SF-295 = experiment: Growth inhibition of human SF295 cells; assay type: functional
SK-MEL-2 = experiment: Growth inhibition of human SK-MEL-2 cells; assay type: functional
COLO 205 = experiment: Growth inhibition of human COLO205 cells; assay type: functional
CCRF-CEM = experiment: Growth inhibition of human CCRF-CEM cells; assay type: functional
CX-1 = experiment: Growth inhibition of human CX-1 cells assessed as zone units at 50 ug/disk by disk diffusion agar colony formation assay; assay type: functional
MC-38 = experiment: Growth inhibition of mouse C38 cells assessed as zone units at 50 ug/disk by disk diffusion agar colony formation assay; assay type: functional
SF-539 = experiment: Growth inhibition of human SF539 cells; assay type: functional
PC-3 = experiment: Growth inhibition of human PC3 cells; assay type: functional
L1210 = experiment: Growth inhibition of mouse L1210 cells assessed as zone units at 50 ug/disk by disk diffusion agar colony formation assay; assay type: functional
786-0 = experiment: Growth inhibition of human 786-0 cells; assay type: functional
MOLT-4 = experiment: Growth inhibition of human MOLT4 cells; assay type: functional
LOX IMVI = experiment: Growth inhibition of human LOXIMVI cells; assay type: functional
SNB-75 = experiment: Growth inhibition of human SNB75 cells; assay type: functional
ACHN = experiment: Growth inhibition of human ACHN cells; assay type: functional
Mus musculus = experiment: Toxicity in mouse at 424 mg/kg, iv in split dose; assay type: organism-based; design: dose 424 mg/kg, route intravenous; settings: in vivo
A549 = experiment: Growth inhibition of human A549 cells; assay type: functional
HT-29 = experiment: Growth inhibition of human HT-29 cells; assay type: functional
MCF7 = experiment: Growth inhibition of human MCF7 cells; assay type: functional
CAKI-1 = experiment: Growth inhibition of human Caki1 cells; assay type: functional
HOP-92 = experiment: Growth inhibition of human HOP92 cells; assay type: functional
HOP-62 = experiment: Growth inhibition of human HOP62 cells; assay type: functional
OVCAR-8 = experiment: Growth inhibition of human OVCAR8 cells; assay type: functional
SR = experiment: Growth inhibition of human SR cells; assay type: functional
KM12 = experiment: Growth inhibition of human KM12 cells; assay type: functional
NCI-H522 = experiment: Growth inhibition of human NCI-H522 cells; assay type: functional
UACC-257 = experiment: Growth inhibition of human UACC257 cells; assay type: functional
OVCAR-5 = experiment: Growth inhibition of human OVCAR5 cells; assay type: functional
BT-549 = experiment: Growth inhibition of human BT549 cells; assay type: functional
K562 = experiment: Growth inhibition of human K562 cells; assay type: functional
HL-60(TB) = experiment: Growth inhibition of human HL-60(TB) cells; assay type: functional
UACC-62 = experiment: Growth inhibition of human UACC62 cells; assay type: functional
[3] = Growth inhibition of human MCF7/ADR resistant cells; assay type: functional; settings: NCI/ADR-RES
EKVX = experiment: Growth inhibition of human EKVX cells; assay type: functional
[4] = Growth inhibition of human […] cells; assay type: functional
T47D = experiment: Growth inhibition of human T47D cells; assay type: functional
HCC 2998 = experiment: Growth inhibition of human HCC2998 cells; assay type: functional
OVCAR-3 = experiment: Growth inhibition of human OVCAR-3 cells; assay type: functional
SN12C = experiment: Growth inhibition of human SN12C cells; assay type: functional
RXF 393 = experiment: Growth inhibition of human […] cells; assay type: functional
OVCAR-4 = experiment: Growth inhibition of human OVCAR4 cells; assay type: functional
SF-268 = experiment: Growth inhibition of human SF268 cells; assay type: functional
NCI-H460 = experiment: Growth inhibition of human NCI-H460 cells; assay type: functional
P388 = experiment: Growth inhibition of mouse P388 cells assessed as zone units at 50 ug/disk by disk diffusion agar colony formation assay; assay type: functional

## COC(=O)[C@H](C)[C@H]1CC[C@@](C)(CCC2=C(C)CCCC2(C)C)OO1 [NUAPAPUIN A METHYL ESTER]
MDA-MB-231
  GI50: > 25 µM
Malme-3M
  GI50: > 25 µM
DU-145
  GI50: > 25 µM
M14
  GI50: > 25 µM
SW-620
  GI50: > 25 µM
NCI-H322M
  GI50: > 25 µM
U-251
  GI50: > 25 µM
SNB-19
  GI50: > 25 µM
HCT-116
  GI50: > 25 µM
[1]
  GI50: > 25 µM
SK-OV-3
  GI50: > 25 µM
SK-MEL-5
  GI50: > 25 µM
MDA-MB-435
  GI50: > 25 µM
HCT-15
  GI50: > 25 µM
UO-31
  GI50: > 23.7 µM
NCI-H23
  GI50: > 25 µM
TK-10
  GI50: > 25 µM
SK-MEL-28
  GI50: > 25 µM
MDA-N
  GI50: > 25 µM
IGROV-1
  GI50: > 5 µM
[2]
  Activity: 400 Zone units
SF-295
  GI50: > 25 µM
SK-MEL-2
  GI50: > 25 µM
COLO 205
  GI50: > 25 µM
CCRF-CEM
  GI50: 19.4 µM
CX-1
  Activity: 310 Zone units
MC-38
  Activity: 700 Zone units
SF-539
  GI50: > 25 µM
PC-3
  GI50: > 25 µM
L1210
  Activity: 400 Zone units
786-0
  GI50: > 25 µM
MOLT-4
  GI50: > 5 µM
LOX IMVI
  GI50: > 5 µM
SNB-75
  GI50: > 25 µM
ACHN
  GI50: 25 µM
Mus musculus
  Activity: Non-toxic
A549
  GI50: > 5 µM
HT-29
  GI50: > 25 µM
MCF7
  GI50: > 25 µM
CAKI-1
  GI50: > 25 µM
HOP-92
  GI50: > 25 µM
HOP-62
  GI50: > 25 µM
OVCAR-8
  GI50: > 25 µM
SR
  GI50: > 25 µM
KM12
  GI50: > 5 µM
NCI-H522
  GI50: > 16.1 µM
UACC-257
  GI50: > 25 µM
OVCAR-5
  GI50: > 25 µM
BT-549
  GI50: > 5 µM
K562
  GI50: 14.3 µM
HL-60(TB)
  GI50: > 5 µM
UACC-62
  GI50: > 25 µM
[3]
  GI50: > 25 µM
EKVX
  GI50: > 25 µM
[4]
  GI50: > 25 µM
T47D
  GI50: > 25 µM
HCC 2998
  GI50: > 25 µM
OVCAR-3
  GI50: > 25 µM
SN12C
  GI50: > 25 µM
RXF 393
  GI50: > 25 µM
OVCAR-4
  GI50: > 25 µM
SF-268
  GI50: > 25 µM
NCI-H460
  GI50: > 25 µM
P388
  Activity: 400 Zone units
